Test results published in US11596632B2, “JAK1 pathway inhibitors for the treatment of gastrointestinal disease” (Incyte Corporation, priority 2018, dated 2023).
pIC50: −log10 of the molar value.

How the values were obtained:
[1] = molecular target: human JAK1 (a.a. 837-1142) (Homo sapiens (Human), UniProt P23458); assay: In vitro JAK kinase assay (HTRF), JAK1; format: biochemical; details: 1 mM ATP
Experimental: The catalytic activity of JAK1, JAK2 or JAK3 was assayed by measuring the phosphorylation of a biotinylated peptide. The phosphorylated peptide was detected by homogenous time resolved fluorescence (HTRF). […] Reactions are carried out at room temperature for 1 hour and then stopped with 20 μL 45 mM EDTA, 300 nM SA-APC, 6 nM Eu-Py20 in assay buffer (Perkin Elmer, Boston, Mass.). Binding to the Europium labeled antibody takes place for 40 minutes and HTRF signal was measured on a Fusion plate reader (Perkin Elmer, Boston, Mass.).

[2] = system: IL-6 stimulated phosphorylation of STAT3 in PBMCs; assay: IL-6 stimulated STAT3 phosphorylation in human PBMC; format: cell-based; details: read-out: in vitro IC50 for suppression of IL-6 stimulated phosphorylation of STAT3 in PBMCs (JAK1 inhibition)
Experimental: Two different assays can be used to understand the functional activity of JAK1 inhibition. The first is a standard cell based assay and the other using whole blood. The former is conducted using human peripheral blood mononuclear cells (PBMC); briefly, the cells are stimulated with IL-6 to increase JAK1 activity, which is measured via phosphorylated STAT3. As increasing concentrations of Compound 1 are added, a corresponding decrease in phosphorylated STAT3 is observed. This assay is appropriate to assess JAK1 activity and/or the inhibitory activity of Compound 1 in samples that are devoid of serum proteins, e.g., feces samples.

[3] = Ex vivo colon permeation study (Ussing diffusion chamber / tube), LSC; format: in vitro ADME, human; details: healthy and UC colon, 100 and 1000 nM, 1 h; LLOQ 2 times background (21 dpm)
Experimental: Methods: Compound 1 concentrations in plasma and feces (colonic surrogate) were determined following a single sustained release 25 mg oral dose (see, e.g., Example B, 25 mg SR composition). Compound 1 concentrations in plasma following a single 100 mg dose were also determined in a separate study (see, e.g., Example C for measuring concentrations of Compound 1 in plasma). Ex vivo study: Colon tissue samples from healthy and UC subjects (2/group) were mounted on a vertical Ussing diffusion chamber. [^14C]Compound 1 was applied to the apical side of the chamber at 100 and 1000 nM and incubated for 1 h. Samples were collected from the donor and receiver sides for determination of Compound 1 concentration. The colonic tissue was snap frozen for quantitative autoradiography.
A small piece of two colon samples from two healthy and UC subjects (total eight samples) were provided by Analytical Biological Services Inc. (Wilmington, Del.) and stored at −70° C. until use.
Dose formulations, i.e., 100 nM and 1000 nM, were prepared on the day of the experiment for all tissues in the study. [^14C]Compound 1 (1.06 mg) was dissolved in dimethyl sulfoxide (DMSO; 1.514 mL) to produce a 1 mM stock solution (0.7 mg/mL). […]
[^14C]Compound 1 concentrations in both donor and receiver sides were analyzed by LSC. The lower limit of quantitation (LLOQ) was determined as 2 times the background (21 dpm).

Chain of human JAK1 (a.a. 837-1142) (P23458 837-1142): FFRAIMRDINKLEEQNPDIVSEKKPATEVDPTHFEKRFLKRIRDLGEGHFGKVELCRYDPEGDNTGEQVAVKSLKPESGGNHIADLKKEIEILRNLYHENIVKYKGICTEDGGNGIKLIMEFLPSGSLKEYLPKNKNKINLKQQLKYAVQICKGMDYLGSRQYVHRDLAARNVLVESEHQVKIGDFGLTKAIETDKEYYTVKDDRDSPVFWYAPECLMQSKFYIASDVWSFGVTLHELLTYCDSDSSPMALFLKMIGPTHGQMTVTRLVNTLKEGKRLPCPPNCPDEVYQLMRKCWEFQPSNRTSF

Structure (SMILES): N#CCC1(n2cc(-c3ncnc4[nH]ccc34)cn2)CN(C2CCN(C(=O)c3ccnc(C(F)(F)F)c3F)CC2)C1 [Compound 1, {1-{1-[3-Fluoro-2-(trifluoromethyl)isonicotinoyl]piperidin-4-yl}-3-[4-(7H-pyrrolo[2,3-d]pyrimidin-4-yl)-1H-pyrazol-1-yl]azetidin-3-yl}acetonitrile]
- pIC50 [1]: > 8.00
- pIC50 [2]: 7.24
- radioactivity / concentration in basolateral side (receiver compartment) [3]: no Compound 1 related radioactivity was detected from the receiver side
